Columns and labels:
Experiment in all cases: Kinase selectivity, scanMAX Kinase assay panel (DiscoverX), % control at 1 uM
Type in all cases: binding
[1] = biological target: T1, scanMAX Kinase assay panel (Homo sapiens, UniProt O14936); conditions: CASK; 1 uM; read-out: Percent Control (%)
T1 construct: purchased DiscoverX
T1 sequence (O14936 1-926): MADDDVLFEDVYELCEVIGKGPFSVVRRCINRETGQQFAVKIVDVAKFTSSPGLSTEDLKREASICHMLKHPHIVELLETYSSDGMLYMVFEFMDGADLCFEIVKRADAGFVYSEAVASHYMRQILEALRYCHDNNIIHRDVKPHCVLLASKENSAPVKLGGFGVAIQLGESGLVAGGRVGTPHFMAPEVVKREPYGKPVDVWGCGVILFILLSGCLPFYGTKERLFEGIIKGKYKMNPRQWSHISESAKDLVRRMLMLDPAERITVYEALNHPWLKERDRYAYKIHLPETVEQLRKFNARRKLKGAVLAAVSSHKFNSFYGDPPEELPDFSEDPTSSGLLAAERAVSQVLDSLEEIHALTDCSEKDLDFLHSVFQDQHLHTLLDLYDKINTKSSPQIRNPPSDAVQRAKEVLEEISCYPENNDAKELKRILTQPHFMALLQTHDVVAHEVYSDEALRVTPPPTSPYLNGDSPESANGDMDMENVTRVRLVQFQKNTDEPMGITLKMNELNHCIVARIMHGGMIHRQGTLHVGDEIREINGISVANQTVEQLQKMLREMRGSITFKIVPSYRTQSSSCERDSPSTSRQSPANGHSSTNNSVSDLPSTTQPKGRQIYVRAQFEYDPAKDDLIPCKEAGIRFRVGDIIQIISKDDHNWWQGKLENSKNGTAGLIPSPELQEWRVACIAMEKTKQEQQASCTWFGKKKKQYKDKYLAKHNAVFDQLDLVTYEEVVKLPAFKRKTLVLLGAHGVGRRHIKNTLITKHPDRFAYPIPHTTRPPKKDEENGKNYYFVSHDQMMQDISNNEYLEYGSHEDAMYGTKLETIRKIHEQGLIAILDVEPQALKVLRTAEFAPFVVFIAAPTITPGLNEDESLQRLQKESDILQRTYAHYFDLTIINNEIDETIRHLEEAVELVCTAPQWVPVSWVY
Experimental: (§1) The following experiment was performed to evaluate the inhibitory activity of the compound of the present invention on more enzymes.
(§2) Particularly, among the compounds of the present invention, the compounds of Example 1, Example 12 and Example 78 were selected and assigned to DiscoverX to measure the kinase selectivity. The experiment was performed by using scanMAX™ Kinase assay panel.
(§3) At this time, the concentration of the drug to be treated to the enzyme was adjusted to 1 uM in DMSO, and the control percentage (% control) was determined according to the following Equation 1. [Example Compound−Positive Control/Negative Control−Positive Control]×100 [Equation 1]
(§4) The enzyme selectivity of the compound of the present invention was judged to be active for the enzyme if the % control was <35 (i.e. less than 35%) for each enzyme.

[2] = biological target: T2, scanMAX Kinase assay panel (Homo sapiens, UniProt P27448); conditions: MARK3; 1 uM; read-out: Percent Control (%)
T2 construct: purchased DiscoverX
T2 sequence (P27448 whole entry): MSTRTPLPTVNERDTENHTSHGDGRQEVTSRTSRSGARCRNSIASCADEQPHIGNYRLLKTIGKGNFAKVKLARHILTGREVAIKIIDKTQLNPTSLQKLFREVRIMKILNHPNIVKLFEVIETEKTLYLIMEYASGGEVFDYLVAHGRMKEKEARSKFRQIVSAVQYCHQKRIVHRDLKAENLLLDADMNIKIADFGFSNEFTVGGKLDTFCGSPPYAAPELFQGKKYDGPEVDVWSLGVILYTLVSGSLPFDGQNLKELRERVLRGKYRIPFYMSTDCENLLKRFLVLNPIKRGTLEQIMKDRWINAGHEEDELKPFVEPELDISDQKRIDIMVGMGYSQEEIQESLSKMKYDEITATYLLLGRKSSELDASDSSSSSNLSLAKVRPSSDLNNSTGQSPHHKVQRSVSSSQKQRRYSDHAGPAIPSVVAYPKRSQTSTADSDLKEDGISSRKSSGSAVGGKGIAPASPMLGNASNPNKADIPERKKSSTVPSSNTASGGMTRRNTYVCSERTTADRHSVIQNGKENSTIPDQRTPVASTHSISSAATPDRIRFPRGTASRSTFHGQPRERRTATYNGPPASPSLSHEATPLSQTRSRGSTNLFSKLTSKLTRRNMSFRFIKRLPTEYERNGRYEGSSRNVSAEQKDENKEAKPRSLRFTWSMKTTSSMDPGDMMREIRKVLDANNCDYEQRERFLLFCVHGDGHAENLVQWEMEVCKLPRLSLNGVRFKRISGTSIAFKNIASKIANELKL
Experimental: as §1, §2, §3, §4

[3] = biological target: T3, scanMAX Kinase assay panel (Homo sapiens, UniProt P29376); conditions: LTK; 1 uM; read-out: Percent Control (%)
T3 construct: purchased DiscoverX
Experimental: as §1, §2, §3, §4

[4] = biological target: T4, scanMAX Kinase assay panel (Homo sapiens, UniProt P78362); conditions: SRPK2; 1 uM; read-out: Percent Control (%)
T4 construct: purchased DiscoverX
Experimental: as §1, §2, §3, §4

[5] = biological target: T5, scanMAX Kinase assay panel (Homo sapiens, UniProt Q02779); conditions: MLK2; 1 uM; read-out: Percent Control (%)
T5 construct: purchased DiscoverX
T5 sequence (Q02779 whole entry): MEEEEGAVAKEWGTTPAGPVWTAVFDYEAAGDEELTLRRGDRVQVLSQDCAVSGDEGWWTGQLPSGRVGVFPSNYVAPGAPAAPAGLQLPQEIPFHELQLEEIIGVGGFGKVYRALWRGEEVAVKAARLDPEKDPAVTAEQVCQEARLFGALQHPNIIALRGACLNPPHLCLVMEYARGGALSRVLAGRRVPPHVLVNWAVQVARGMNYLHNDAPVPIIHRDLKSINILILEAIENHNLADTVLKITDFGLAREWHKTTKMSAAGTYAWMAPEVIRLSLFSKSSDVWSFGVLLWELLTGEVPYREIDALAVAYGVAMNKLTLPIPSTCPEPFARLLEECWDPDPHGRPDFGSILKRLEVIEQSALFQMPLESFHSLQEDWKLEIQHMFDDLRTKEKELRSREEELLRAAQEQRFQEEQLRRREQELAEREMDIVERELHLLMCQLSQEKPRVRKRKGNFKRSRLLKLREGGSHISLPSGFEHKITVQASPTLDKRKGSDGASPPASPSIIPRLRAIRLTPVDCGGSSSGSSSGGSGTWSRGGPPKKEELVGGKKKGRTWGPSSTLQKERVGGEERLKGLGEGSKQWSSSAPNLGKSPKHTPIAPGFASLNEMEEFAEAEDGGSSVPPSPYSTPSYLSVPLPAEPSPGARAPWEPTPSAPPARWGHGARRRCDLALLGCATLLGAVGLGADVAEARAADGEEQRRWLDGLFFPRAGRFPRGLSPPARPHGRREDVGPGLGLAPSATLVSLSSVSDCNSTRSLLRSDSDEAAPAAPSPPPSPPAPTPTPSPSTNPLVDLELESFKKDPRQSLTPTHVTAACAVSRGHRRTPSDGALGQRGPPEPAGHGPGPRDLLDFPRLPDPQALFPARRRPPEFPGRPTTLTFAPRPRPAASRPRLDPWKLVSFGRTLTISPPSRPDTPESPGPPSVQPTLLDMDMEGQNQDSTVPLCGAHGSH
Experimental: as §1, §2, §3, §4

[6] = biological target: T6, scanMAX Kinase assay panel (Homo sapiens, UniProt Q86UE8); conditions: TLK2; 1 uM; read-out: Percent Control (%)
T6 construct: purchased DiscoverX
T6 sequence (Q86UE8 whole entry): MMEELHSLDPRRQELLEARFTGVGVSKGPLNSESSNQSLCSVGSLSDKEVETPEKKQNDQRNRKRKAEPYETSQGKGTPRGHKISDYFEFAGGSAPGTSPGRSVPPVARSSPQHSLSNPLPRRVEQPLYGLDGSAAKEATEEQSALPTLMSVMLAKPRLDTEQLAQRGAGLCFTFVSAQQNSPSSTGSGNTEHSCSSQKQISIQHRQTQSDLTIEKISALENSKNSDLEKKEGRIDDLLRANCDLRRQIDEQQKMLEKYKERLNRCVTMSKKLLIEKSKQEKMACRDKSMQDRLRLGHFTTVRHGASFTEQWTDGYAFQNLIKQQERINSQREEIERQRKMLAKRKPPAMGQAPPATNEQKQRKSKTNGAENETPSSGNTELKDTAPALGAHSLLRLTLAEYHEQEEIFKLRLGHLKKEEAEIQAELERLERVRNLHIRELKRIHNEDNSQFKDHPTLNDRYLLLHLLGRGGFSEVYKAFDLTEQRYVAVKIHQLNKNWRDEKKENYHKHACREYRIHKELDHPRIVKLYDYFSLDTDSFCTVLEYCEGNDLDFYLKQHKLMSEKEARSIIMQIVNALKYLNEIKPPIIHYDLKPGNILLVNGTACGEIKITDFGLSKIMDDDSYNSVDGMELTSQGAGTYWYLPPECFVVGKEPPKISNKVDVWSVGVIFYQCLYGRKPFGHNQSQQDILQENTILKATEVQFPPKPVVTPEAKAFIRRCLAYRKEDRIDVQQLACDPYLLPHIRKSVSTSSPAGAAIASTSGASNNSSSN
Experimental: as §1, §2, §3, §4

[7] = biological target: T7, scanMAX Kinase assay panel (Homo sapiens, UniProt Q86Z02); conditions: HIPK1; 1 uM; read-out: Percent Control (%)
T7 construct: purchased DiscoverX
T7 sequence (Q86Z02 whole entry): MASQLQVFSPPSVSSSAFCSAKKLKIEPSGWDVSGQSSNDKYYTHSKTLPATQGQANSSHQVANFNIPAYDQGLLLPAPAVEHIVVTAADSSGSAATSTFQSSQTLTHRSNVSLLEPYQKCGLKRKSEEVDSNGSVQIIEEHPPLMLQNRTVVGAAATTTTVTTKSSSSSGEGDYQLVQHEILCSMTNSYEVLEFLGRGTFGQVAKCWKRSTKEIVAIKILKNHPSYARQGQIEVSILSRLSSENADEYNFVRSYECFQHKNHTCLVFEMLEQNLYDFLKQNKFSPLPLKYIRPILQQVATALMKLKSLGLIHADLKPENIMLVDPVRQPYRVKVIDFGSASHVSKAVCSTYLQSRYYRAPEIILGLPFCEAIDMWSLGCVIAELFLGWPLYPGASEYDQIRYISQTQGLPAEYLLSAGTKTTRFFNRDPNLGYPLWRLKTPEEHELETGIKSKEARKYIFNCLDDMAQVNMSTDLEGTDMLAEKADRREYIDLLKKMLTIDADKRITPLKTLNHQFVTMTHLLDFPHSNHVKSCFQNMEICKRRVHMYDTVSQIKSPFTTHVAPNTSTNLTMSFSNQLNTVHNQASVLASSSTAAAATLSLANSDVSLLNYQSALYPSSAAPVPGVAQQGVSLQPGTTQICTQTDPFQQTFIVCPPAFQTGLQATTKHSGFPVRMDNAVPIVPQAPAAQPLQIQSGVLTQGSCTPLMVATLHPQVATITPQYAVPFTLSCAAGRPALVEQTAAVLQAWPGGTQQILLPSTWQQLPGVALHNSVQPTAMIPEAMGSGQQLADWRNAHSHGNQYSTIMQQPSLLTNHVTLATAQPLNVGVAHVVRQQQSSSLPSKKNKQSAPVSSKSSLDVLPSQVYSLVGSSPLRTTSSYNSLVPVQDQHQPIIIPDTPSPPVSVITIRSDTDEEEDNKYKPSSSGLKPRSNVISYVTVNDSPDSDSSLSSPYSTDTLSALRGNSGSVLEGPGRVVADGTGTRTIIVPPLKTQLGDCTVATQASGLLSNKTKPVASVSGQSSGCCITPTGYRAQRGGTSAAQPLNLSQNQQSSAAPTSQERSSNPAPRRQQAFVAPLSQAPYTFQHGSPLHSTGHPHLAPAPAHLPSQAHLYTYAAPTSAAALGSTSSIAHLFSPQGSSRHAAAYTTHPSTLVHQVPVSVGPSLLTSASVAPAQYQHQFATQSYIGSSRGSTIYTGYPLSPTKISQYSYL
Experimental: as §1, §2, §3, §4

[8] = biological target: T8, scanMAX Kinase assay panel (Homo sapiens, UniProt Q8N4C8); conditions: MINK; 1 uM; read-out: Percent Control (%)
T8 construct: purchased DiscoverX
Experimental: as §1, §2, §3, §4

[9] = biological target: T9, scanMAX Kinase assay panel (Homo sapiens, UniProt Q96RR4); conditions: CAMKK2; 1 uM; read-out: Percent Control (%)
T9 construct: purchased DiscoverX
T9 sequence (Q96RR4 whole entry): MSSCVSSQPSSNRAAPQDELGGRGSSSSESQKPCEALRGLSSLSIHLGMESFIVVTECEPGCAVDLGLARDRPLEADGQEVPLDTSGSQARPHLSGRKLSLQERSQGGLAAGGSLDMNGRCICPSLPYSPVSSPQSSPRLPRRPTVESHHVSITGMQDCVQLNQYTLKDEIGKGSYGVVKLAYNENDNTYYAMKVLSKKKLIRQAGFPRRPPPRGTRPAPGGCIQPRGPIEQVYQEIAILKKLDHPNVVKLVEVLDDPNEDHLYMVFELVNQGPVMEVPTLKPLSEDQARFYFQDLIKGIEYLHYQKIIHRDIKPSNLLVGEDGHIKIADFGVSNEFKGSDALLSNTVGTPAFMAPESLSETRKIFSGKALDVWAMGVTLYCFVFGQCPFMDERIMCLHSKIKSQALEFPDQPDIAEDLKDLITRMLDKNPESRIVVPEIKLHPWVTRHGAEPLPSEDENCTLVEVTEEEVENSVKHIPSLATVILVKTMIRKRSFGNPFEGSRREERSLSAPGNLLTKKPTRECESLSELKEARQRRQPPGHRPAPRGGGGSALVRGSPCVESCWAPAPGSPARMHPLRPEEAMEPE
Experimental: as §1, §2, §3, §4

[10] = biological target: T10, scanMAX Kinase assay panel (Homo sapiens, UniProt Q9BYT3); conditions: STK33; 1 uM; read-out: Percent Control (%)
T10 construct: purchased DiscoverX
T10 sequence (Q9BYT3 whole entry): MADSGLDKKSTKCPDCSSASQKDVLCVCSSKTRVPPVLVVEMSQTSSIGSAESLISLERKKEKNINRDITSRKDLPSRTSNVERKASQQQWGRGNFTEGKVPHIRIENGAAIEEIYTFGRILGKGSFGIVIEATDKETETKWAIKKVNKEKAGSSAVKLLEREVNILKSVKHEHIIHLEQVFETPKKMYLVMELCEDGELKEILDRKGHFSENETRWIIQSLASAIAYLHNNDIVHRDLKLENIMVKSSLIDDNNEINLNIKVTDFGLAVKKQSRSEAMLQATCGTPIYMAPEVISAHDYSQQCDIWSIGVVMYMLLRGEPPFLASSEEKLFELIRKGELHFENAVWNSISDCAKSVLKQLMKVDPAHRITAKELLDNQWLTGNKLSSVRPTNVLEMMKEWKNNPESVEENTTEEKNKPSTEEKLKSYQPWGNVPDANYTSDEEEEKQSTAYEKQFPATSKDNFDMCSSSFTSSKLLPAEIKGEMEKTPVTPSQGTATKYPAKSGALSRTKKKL
Experimental: as §1, §2, §3, §4

[11] = biological target: T11, scanMAX Kinase assay panel (Homo sapiens, UniProt Q9H2K8); conditions: TAOK3; 1 uM; read-out: Percent Control (%)
T11 construct: purchased DiscoverX
T11 sequence (Q9H2K8 1-898): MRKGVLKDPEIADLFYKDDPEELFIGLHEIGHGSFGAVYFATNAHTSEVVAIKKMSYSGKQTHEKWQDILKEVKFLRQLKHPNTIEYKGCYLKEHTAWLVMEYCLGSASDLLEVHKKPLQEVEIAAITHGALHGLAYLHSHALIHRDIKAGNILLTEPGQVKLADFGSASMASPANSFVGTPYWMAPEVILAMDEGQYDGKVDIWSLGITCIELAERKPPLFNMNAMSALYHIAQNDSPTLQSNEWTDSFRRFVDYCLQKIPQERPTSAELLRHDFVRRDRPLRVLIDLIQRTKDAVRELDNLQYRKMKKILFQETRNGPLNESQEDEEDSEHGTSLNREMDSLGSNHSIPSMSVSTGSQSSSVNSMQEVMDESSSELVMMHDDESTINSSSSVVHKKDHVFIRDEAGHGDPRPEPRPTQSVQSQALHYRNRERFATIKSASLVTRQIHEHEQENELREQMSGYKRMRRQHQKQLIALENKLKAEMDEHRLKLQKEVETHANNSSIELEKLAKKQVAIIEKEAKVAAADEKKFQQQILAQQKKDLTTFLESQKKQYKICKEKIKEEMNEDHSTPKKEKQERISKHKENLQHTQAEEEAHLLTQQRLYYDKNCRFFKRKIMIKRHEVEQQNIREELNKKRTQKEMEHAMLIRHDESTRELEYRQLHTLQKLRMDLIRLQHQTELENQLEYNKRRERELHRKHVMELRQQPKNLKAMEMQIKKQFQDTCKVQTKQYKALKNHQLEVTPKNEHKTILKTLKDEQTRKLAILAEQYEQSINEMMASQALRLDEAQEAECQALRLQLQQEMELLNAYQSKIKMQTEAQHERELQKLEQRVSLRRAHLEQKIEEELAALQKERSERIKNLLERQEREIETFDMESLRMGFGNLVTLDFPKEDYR
Experimental: as §1, §2, §3, §4

Row | SMILES | remaining binding at 1 µM [1] | remaining binding at 1 µM [2] | remaining binding at 1 µM [3] | remaining binding at 1 µM [4] | remaining binding at 1 µM [5] | remaining binding at 1 µM [6] | remaining binding at 1 µM [7] | remaining binding at 1 µM [8] | remaining binding at 1 µM [9] | remaining binding at 1 µM [10] | remaining binding at 1 µM [11]
1 | Cc1ccc(C(=O)Nc2ccc(CN3CCN(C)CC3)c(C(F)(F)F)c2)cc1C#Cc1cnc2c(Nc3cnn(C)c3)cccn12 [Example 1, 4-methyl-3-((8-((1-methyl-1H-pyrazol-4-yl)amino)imidazo[1,2-a]pyridin-3-yl)ethynyl)-N-(4-((4-methylpiperazin-1-yl)methyl)-3-(trifluoromethyl)phenyl)benzamide] | 74% | 53% | 9% | 97% | 29% | 86% | 51% | 2% | 32% | 5% | 1%
2 | Cc1cn(-c2cc(NC(=O)c3ccc(C)c(C#Cc4cnc5c(Nc6cnn(C)c6)cccn45)c3)cc(C(F)(F)F)c2)cn1 [Example 12, 4-methyl-N-(3-(4-methyl-1H-imidazol-1-yl)-5-(trifluoromethyl)phenyl)-3-((8-((1-methyl-1H-pyrazol-4-yl)amino)imidazo[1,2-a]pyridin-3-yl)ethynyl)benzamide] | 90% | 94% | 12% | 87% | 48% | 97% | 71% | 44% | 77% | 40% | 61%
3 | Cc1ccc(NC(=O)C2(C(=O)Nc3ccc(F)cc3)CC2)cc1C#Cc1cnc2c(Nc3cnn(C(C)C)c3)cccn12 [Example 78] | 100% | 100% | 94% | 100% | 94% | 100% | 91% | 87% | 100% | 100% | 99%

— US10870647B2, “Imidazopyridine derivative, method for preparing same, and pharmaceutical composition containing same as active ingredient for preventing or treating cancer” (DAEGU-GYEONGBUK MEDICAL INNOVATION FOUNDATION, priority 2016, dated 2020)
